{
  "source": "patent US8791075B2",
  "about": "“Methods and compositions for inhibition of BCL6 repression” (Albert Einstein College of Medicine of Yeshiva University, priority 2008, dated 2014)",
  "test_system": "DLBCL cell lines known to be biologically dependent on BCL6 (ly1, Ly7 and Ly10)",
  "assay": "DLBCL cell growth inhibition, BCL6-dependent cell lines",
  "assay_type": "cell-based, human",
  "details": "for anti-lymphoma activity: BCL6 dependent DLBCL cells, 48 h; for GI50: Ly1, Ly7, Ly10, 48 hr total amount, dose frequency as in Table 1",
  "description": "DLBCL cell lines were grown at its respective concentration that were sufficient to keep the untreated cells in exponential growth over the 48 h peptide exposure time. Cell viability was determined by using a fluorometric resazurin reduction method (CellTiter-Blue, Promega) following the manufacturer instructions. The fluorescence (560Ex/590Em) was determined using the Polarstar Optima microplate reader (BMG Labtechnologies). The number of viable cells in each treated well was calculated by using the linear least-squares regression of the standard curve. Optical density was determined for 6 replicates per treatment condition or standard. Cell viability in peptide-treated cells was normalized to their respective controls. Cell viability was verified by the Sulforhodamine B assay (Sigma, Milwaukee, Wis.) following manufacturer's instructions with minor modifications for suspended cells. Experiments were carried out in triplicates and data are represented as percentage of growth inhibition to respective control with 95% confidence interval.\nDLBCL cell growth inhibition was chosen as the most relevant screening assay to compare and contrast the biological activity of BPI and its derivatives. […] Growth inhibition was measured by a metabolic viability assay and verified by trypan blue exclusion and were performed in biological quintuplicates. […]",
  "note": "Square brackets hold non-standard residues; d marks the D form. Ends that are not written are not given here. Peptide text beside a SMILES is read from it.",
  "data": [
    {"compound": "CC[C@@H](C)[C@@H](NC(=O)CNC(=O)[C@@H](CCCNC(=N)N)NC(=O)CNC(=O)CNC(=O)[C@@H](CCCNC(=N)N)NC(=O)[C@@H](CCCCN)NC(=O)[C@@H](CCCCN)NC(=O)[C@@H](CCCNC(=N)N)NC(=O)[C@@H](CCCNC(=N)N)NC(=O)[C@@H](CCC(N)=O)NC(=O)[C@@H](CCCNC(=N)N)NC(=O)[C@@H](CCCNC(=N)N)NC(=O)[C@@H](CCCNC(=N)N)NC(=O)CN)C(=O)N[C@H](CCC(=O)O)C(=O)N[C@H](Cc1c[nH]cn1)C(=O)N[C@@H](C(=O)N[C@H](CO)C(=O)N[C@H](CCCNC(=N)N)C(=O)NCC(=O)O)[C@H](C)CC", "note": "[S7] (H-G[dR][dR][dR][dQ][dR][dR][dK][dK][dR]GG[dR]G[dI][dE][dH][dI][dS][dR]G-OH; N-terminus and C-terminus assumed)", "values": [
      {"measurement": "anti-lymphoma activity", "value": "significantly weaker"}
    ]},
    {"compound": "G[dD][dI][dM]G[dE][dW]G[dN][dE][dI][dF]G[dA][dI][dA]G[dF][dL]GG[dR][dR][dR][dQ][dR][dR][dK][dK][dR]GGRSIHEIPRG [S4]", "values": [
      {"measurement": "GI50", "value": 14.4, "unit": "µM"}
    ]},
    {"compound": "NH2-GLFGAIAGFIENGWEGMIDG-OH (H-GLFGAIAGFIENGWEGMIDG-OH) [Fu, reference compound]", "values": [
      {"measurement": "effect on DLBCL viability (FIG. 8)", "setting": "Ly1, Ly7 and Ly10, peptides administered every 4 h during a 48 h interval", "value": "little or no effect"}
    ]},
    {"compound": "YGRKKRRQRRRGGLVATVKEAGRSIHEIPREEL [S1]", "values": [
      {"measurement": "anti-lymphoma activity", "value": "not active"}
    ]},
    {"compound": "YGRKKRRQRRRGGRSIHEIPRG [S2]", "values": [
      {"measurement": "GI50", "value": 21.7, "unit": "µM"}
    ]}
  ]
}
